The values below come from PubChem BioAssay (NCI).

The structures appear in SMILES notation.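 Each compound was tested at five concentrations against cells in 96-well plates for 48 hours. Here, GI50 denotes the concentration required for 50% inhibition of growth. At the TGI there is no net growth.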 Some results are limits rather than exact numbers.

The subject of the first test is HCT-116 colon. The test is described as follows: NCI-60 cell line screen, 48 h.
Consider `O=c1[nH]c(Nc2nc3ccccc3[nH]2)nc(O)c1-c1ccccc1`, for which the TGI was > 100 µM.

As to `CCCC(=O)OC1CC(n2cc(F)c(=O)[nH]c2=O)OC1COP(=O)(OCC(Cl)(Cl)Cl)OCC(Cl)(Cl)Cl` (centres undefined), the TGI was > 51.1 µM.

For `C=C(Br)C(C)(Br)CCC(Br)C(C)(C)Cl` (centres undefined), the TGI worked out at 25 µM.

`Cc1cc(-c2ccc3nc(C4CCOCC4)n(CCOC(F)(F)F)c3c2)cn(C)c1=O`: the TGI is 14.8 µM.

Take `CC1(C)C2CCC(=O)C1CC2` (centres undefined): the TGI was > 100 µM.

Take `O=c1c2sccc2n(CC2COc3ccccc3O2)c(=O)n1O` (centres undefined): the GI50 is 6.54 µM and the TGI is 29.2 µM.

For the compound `COc1cc2c3c(n(C)c(=O)c2cc1OC)-c1cc2c(cc1/C3=C\CCCN)OCO2`, the GI50 was 4.64 µM and the TGI was found to be 25.2 µM.

On to `COc1cc(/C=C/c2cc(O)c(C(C)=O)c(O)c2)cc2c1O[C@]1(C)CC[C@@H](O)C(C)(C)[C@H]1C2`, for which the GI50 was 4.56 µM and the TGI came out at 22 µM.

Compound `CCN(CC)/C(SCc1ccccc1)=C(\C(Cl)=C(Cl)Cl)[N+](=O)[O-]` showed a TGI of 28.2 µM.

In another test the test system is HCT-15 colon. In words: NCI-60 cell line screen, 48 h.
`O=c1[nH]c(Nc2nc3ccccc3[nH]2)nc(O)c1-c1ccccc1`: the TGI is > 100 µM.

Take `CCCC(=O)OC1CC(n2cc(F)c(=O)[nH]c2=O)OC1COP(=O)(OCC(Cl)(Cl)Cl)OCC(Cl)(Cl)Cl` (centres undefined): the TGI was > 100 µM.

Regarding `C=C(Br)C(C)(Br)CCC(Br)C(C)(C)Cl` (centres undefined), the TGI was 32.7 µM.

In the case of `Cc1cc(-c2ccc3nc(C4CCOCC4)n(CCOC(F)(F)F)c3c2)cn(C)c1=O`, the TGI came to 4.23 µM.

On to `CC1(C)C2CCC(=O)C1CC2` (centres undefined), for which the TGI is > 100 µM.

For the compound `O=c1c2sccc2n(CC2COc3ccccc3O2)c(=O)n1O` (centres undefined), the GI50 is 4.53 µM and the TGI was > 100 µM.

Regarding `COc1cc2c3c(n(C)c(=O)c2cc1OC)-c1cc2c(cc1/C3=C\CCCN)OCO2`, the GI50 is 3.18 µM and the TGI was 15.5 µM.

With `COc1cc(/C=C/c2cc(O)c(C(C)=O)c(O)c2)cc2c1O[C@]1(C)CC[C@@H](O)C(C)(C)[C@H]1C2`, the GI50 was 4.68 µM and the TGI was determined as 35.7 µM.

In turn, `CCN(CC)/C(SCc1ccccc1)=C(\C(Cl)=C(Cl)Cl)[N+](=O)[O-]` came in with a TGI of 71.7 µM.

For the next test, the system named is HOP-92 NSCLC. The test is described as follows: NCI-60 cell line screen, 48 h.
For `O=c1[nH]c(Nc2nc3ccccc3[nH]2)nc(O)c1-c1ccccc1`, the TGI was > 100 µM.

In the case of `CCCC(=O)OC1CC(n2cc(F)c(=O)[nH]c2=O)OC1COP(=O)(OCC(Cl)(Cl)Cl)OCC(Cl)(Cl)Cl` (centres undefined), the TGI was > 100 µM.

As for `C=C(Br)C(C)(Br)CCC(Br)C(C)(C)Cl` (centres undefined), the TGI is 30.2 µM.

Regarding `Cc1cc(-c2ccc3nc(C4CCOCC4)n(CCOC(F)(F)F)c3c2)cn(C)c1=O`, the GI50 was 0.182 µM and the TGI is 36.6 µM.

On to `COc1cc2c3c(n(C)c(=O)c2cc1OC)-c1cc2c(cc1/C3=C\CCCN)OCO2`, for which the GI50 is 0.696 µM and the TGI was 7.22 µM.

Take `COc1cc(/C=C/c2cc(O)c(C(C)=O)c(O)c2)cc2c1O[C@]1(C)CC[C@@H](O)C(C)(C)[C@H]1C2`: the GI50 is 3.2 µM and the TGI is 61.6 µM.

The next test concerns IGROV1 ovarian. In words: NCI-60 cell line screen, 48 h.
For the compound `O=c1[nH]c(Nc2nc3ccccc3[nH]2)nc(O)c1-c1ccccc1`, the TGI is > 100 µM.

With `CCCC(=O)OC1CC(n2cc(F)c(=O)[nH]c2=O)OC1COP(=O)(OCC(Cl)(Cl)Cl)OCC(Cl)(Cl)Cl` (centres undefined), the TGI is > 31.6 µM.

In turn, `C=C(Br)C(C)(Br)CCC(Br)C(C)(C)Cl` (centres undefined) gave a TGI of 18.3 µM.

On to `Cc1cc(-c2ccc3nc(C4CCOCC4)n(CCOC(F)(F)F)c3c2)cn(C)c1=O`, for which the TGI turned out to be 6.91 µM.

For the compound `CC1(C)C2CCC(=O)C1CC2` (centres undefined), the TGI is > 100 µM.

On to `O=c1c2sccc2n(CC2COc3ccccc3O2)c(=O)n1O` (centres undefined), for which the GI50 was 15.4 µM and the TGI is > 100 µM.

In the case of `COc1cc2c3c(n(C)c(=O)c2cc1OC)-c1cc2c(cc1/C3=C\CCCN)OCO2`, the GI50 was 2.24 µM and the TGI was found to be 32.4 µM.

Consider `COc1cc(/C=C/c2cc(O)c(C(C)=O)c(O)c2)cc2c1O[C@]1(C)CC[C@@H](O)C(C)(C)[C@H]1C2`, for which the GI50 is 6.44 µM and the TGI is 69 µM.

`CCN(CC)/C(SCc1ccccc1)=C(\C(Cl)=C(Cl)Cl)[N+](=O)[O-]` yielded a TGI of 33.8 µM.

The subject of another test is LOX IMVI melanoma. The test is described as follows: NCI-60 cell line screen, 48 h.
With `O=c1[nH]c(Nc2nc3ccccc3[nH]2)nc(O)c1-c1ccccc1`, the TGI was > 100 µM.

For the compound `CCCC(=O)OC1CC(n2cc(F)c(=O)[nH]c2=O)OC1COP(=O)(OCC(Cl)(Cl)Cl)OCC(Cl)(Cl)Cl` (centres undefined), the TGI was > 69.6 µM.

Turning to `Cc1cc(-c2ccc3nc(C4CCOCC4)n(CCOC(F)(F)F)c3c2)cn(C)c1=O`, the TGI stood at 1.06 µM.

Regarding `CC1(C)C2CCC(=O)C1CC2` (centres undefined), the TGI is > 100 µM.

Regarding `O=c1c2sccc2n(CC2COc3ccccc3O2)c(=O)n1O` (centres undefined), the GI50 is 6.45 µM and the TGI was > 100 µM.

Turning to `COc1cc2c3c(n(C)c(=O)c2cc1OC)-c1cc2c(cc1/C3=C\CCCN)OCO2`, the GI50 was 1.06 µM and the TGI turned out to be 2.52 µM.

For `COc1cc(/C=C/c2cc(O)c(C(C)=O)c(O)c2)cc2c1O[C@]1(C)CC[C@@H](O)C(C)(C)[C@H]1C2`, the GI50 is 2.85 µM and the TGI is 13.3 µM.

For the compound `CCN(CC)/C(SCc1ccccc1)=C(\C(Cl)=C(Cl)Cl)[N+](=O)[O-]`, the TGI stood at 32.7 µM.

The next test deals with M14 melanoma. In words: NCI-60 cell line screen, 48 h.
With `O=c1[nH]c(Nc2nc3ccccc3[nH]2)nc(O)c1-c1ccccc1`, the TGI was > 100 µM.

In the case of `CCCC(=O)OC1CC(n2cc(F)c(=O)[nH]c2=O)OC1COP(=O)(OCC(Cl)(Cl)Cl)OCC(Cl)(Cl)Cl` (centres undefined), the TGI was > 31.6 µM.

`C=C(Br)C(C)(Br)CCC(Br)C(C)(C)Cl` (centres undefined) returned a TGI of 39 µM.

For `CC1(C)C2CCC(=O)C1CC2` (centres undefined), the TGI was > 100 µM.

For `O=c1c2sccc2n(CC2COc3ccccc3O2)c(=O)n1O` (centres undefined), the GI50 was 21.2 µM and the TGI is > 100 µM.

As to `COc1cc2c3c(n(C)c(=O)c2cc1OC)-c1cc2c(cc1/C3=C\CCCN)OCO2`, the GI50 is 12.4 µM and the TGI was > 100 µM.

For `COc1cc(/C=C/c2cc(O)c(C(C)=O)c(O)c2)cc2c1O[C@]1(C)CC[C@@H](O)C(C)(C)[C@H]1C2`, the GI50 was 5.12 µM and the TGI was found to be 49.4 µM.

On to `CCN(CC)/C(SCc1ccccc1)=C(\C(Cl)=C(Cl)Cl)[N+](=O)[O-]`, for which the TGI turned out to be 29.3 µM.

In a further test the test system is MALME-3M melanoma. In words: NCI-60 cell line screen, 48 h.
In the case of `O=c1[nH]c(Nc2nc3ccccc3[nH]2)nc(O)c1-c1ccccc1`, the TGI is > 100 µM.

Take `CCCC(=O)OC1CC(n2cc(F)c(=O)[nH]c2=O)OC1COP(=O)(OCC(Cl)(Cl)Cl)OCC(Cl)(Cl)Cl` (centres undefined): the TGI is > 100 µM.

With `C=C(Br)C(C)(Br)CCC(Br)C(C)(C)Cl` (centres undefined), the TGI stood at 39.3 µM.

`Cc1cc(-c2ccc3nc(C4CCOCC4)n(CCOC(F)(F)F)c3c2)cn(C)c1=O` returned a TGI of 5.16 µM.

Consider `CC1(C)C2CCC(=O)C1CC2` (centres undefined), for which the TGI is > 100 µM.

Take `O=c1c2sccc2n(CC2COc3ccccc3O2)c(=O)n1O` (centres undefined): the GI50 was 20 µM and the TGI stood at 81.5 µM.

For `COc1cc2c3c(n(C)c(=O)c2cc1OC)-c1cc2c(cc1/C3=C\CCCN)OCO2`, the GI50 is 10.1 µM and the TGI is 38.6 µM.

In the case of `COc1cc(/C=C/c2cc(O)c(C(C)=O)c(O)c2)cc2c1O[C@]1(C)CC[C@@H](O)C(C)(C)[C@H]1C2`, the GI50 is 7.35 µM and the TGI was determined as 44.2 µM.

The compound `CCN(CC)/C(SCc1ccccc1)=C(\C(Cl)=C(Cl)Cl)[N+](=O)[O-]` registered a TGI of 21.8 µM.

Another test relates to PC-3 prostate. In words: NCI-60 cell line screen, 48 h.
As for `O=c1[nH]c(Nc2nc3ccccc3[nH]2)nc(O)c1-c1ccccc1`, the TGI was > 100 µM.

In the case of `CCCC(=O)OC1CC(n2cc(F)c(=O)[nH]c2=O)OC1COP(=O)(OCC(Cl)(Cl)Cl)OCC(Cl)(Cl)Cl` (centres undefined), the TGI is > 100 µM.

In the case of `C=C(Br)C(C)(Br)CCC(Br)C(C)(C)Cl` (centres undefined), the TGI was 36.3 µM.

Take `Cc1cc(-c2ccc3nc(C4CCOCC4)n(CCOC(F)(F)F)c3c2)cn(C)c1=O`: the GI50 was 1.04 µM.

As for `CC1(C)C2CCC(=O)C1CC2` (centres undefined), the TGI was > 100 µM.

Take `O=c1c2sccc2n(CC2COc3ccccc3O2)c(=O)n1O` (centres undefined): the GI50 was 18.2 µM and the TGI was > 100 µM.

Regarding `COc1cc2c3c(n(C)c(=O)c2cc1OC)-c1cc2c(cc1/C3=C\CCCN)OCO2`, the GI50 was 3.31 µM and the TGI came out at 31.9 µM.

For `COc1cc(/C=C/c2cc(O)c(C(C)=O)c(O)c2)cc2c1O[C@]1(C)CC[C@@H](O)C(C)(C)[C@H]1C2`, the GI50 was 3.75 µM and the TGI was > 100 µM.

In turn, `CCN(CC)/C(SCc1ccccc1)=C(\C(Cl)=C(Cl)Cl)[N+](=O)[O-]` had a TGI of 47.1 µM.

The subject of a further test is RPMI-8226 leukemia. The test is described as follows: NCI-60 cell line screen, 48 h.
Take `CCCC(=O)OC1CC(n2cc(F)c(=O)[nH]c2=O)OC1COP(=O)(OCC(Cl)(Cl)Cl)OCC(Cl)(Cl)Cl` (centres undefined): the TGI was 86.4 µM.

For `C=C(Br)C(C)(Br)CCC(Br)C(C)(C)Cl` (centres undefined), the TGI was 58.4 µM.

Take `Cc1cc(-c2ccc3nc(C4CCOCC4)n(CCOC(F)(F)F)c3c2)cn(C)c1=O`: the GI50 was 0.13 µM and the TGI is > 31.6 µM.

For `CC1(C)C2CCC(=O)C1CC2` (centres undefined), the TGI is > 100 µM.

`O=c1c2sccc2n(CC2COc3ccccc3O2)c(=O)n1O` (centres undefined): the GI50 was 3.9 µM and the TGI was 24.5 µM.

As for `CCN(CC)/C(SCc1ccccc1)=C(\C(Cl)=C(Cl)Cl)[N+](=O)[O-]`, the TGI is 65.6 µM.

The next test has as its system SF-539 CNS. In words: NCI-60 cell line screen, 48 h.
As for `O=c1[nH]c(Nc2nc3ccccc3[nH]2)nc(O)c1-c1ccccc1`, the TGI was > 100 µM.

For the compound `C=C(Br)C(C)(Br)CCC(Br)C(C)(C)Cl` (centres undefined), the TGI was found to be 31.6 µM.

On to `CC1(C)C2CCC(=O)C1CC2` (centres undefined), for which the TGI was > 100 µM.

For the compound `O=c1c2sccc2n(CC2COc3ccccc3O2)c(=O)n1O` (centres undefined), the GI50 was 15.3 µM and the TGI was > 100 µM.

For the compound `COc1cc2c3c(n(C)c(=O)c2cc1OC)-c1cc2c(cc1/C3=C\CCCN)OCO2`, the GI50 is 1.65 µM and the TGI was 6.25 µM.

Consider `COc1cc(/C=C/c2cc(O)c(C(C)=O)c(O)c2)cc2c1O[C@]1(C)CC[C@@H](O)C(C)(C)[C@H]1C2`, for which the GI50 was 1.32 µM and the TGI was determined as 6.2 µM.

In turn, `CCN(CC)/C(SCc1ccccc1)=C(\C(Cl)=C(Cl)Cl)[N+](=O)[O-]` yielded a TGI of 39.4 µM.
